{"source": "ChEMBL document CHEMBL1158660", "about": "“Potential anticancer agents. XIV. Isolation of spruceanol and montanin from Cunuria spruceana (Euphorbiaceae)” (1979)", "test_system": "P388", "assay": "Cytotoxicity against mouse P388 cells", "type": "functional", "details": "read-out: ED50 (the source's name)", "data": [{"smiles": "C=C(C)[C@]12C[C@@H](C)[C@@]34O[C@](CCCCCCCCCCC)(O[C@@H]1[C@@H]3[C@@H]1O[C@]1(CO)[C@@H](O)[C@]1(O)C(=O)C(C)=C[C@H]14)O2", "note": "[MONTANIN]", "values": [{"measurement": "EC50", "value": 0.06, "unit": "µg/mL"}]}, {"smiles": "C=Cc1c(C)c(O)cc2c1CC[C@@H]1C(C)(C)[C@H](O)CC[C@@]21C", "note": "[SPRUCEANOL]", "values": [{"measurement": "EC50", "value": 3.2, "unit": "µg/mL"}]}]}
